Source: patent US12098217B2, “Fusion peptides as antimicrobial agents” (CENTRE NATIONAL DE LA RECHERCHE SCIENTIFIQUE, priority 2019, dated 2024)
Converted amounts (≈) assume the structure as drawn. Read-outs that look alike come from different tables or passages of the source. One block for each compound: values may come before it. Square brackets hold non-standard residues; d marks the D form. Peptide text beside a SMILES is read from it. * marks the point of attachment. 5FAM = O=C1OC2(c3ccc(O)cc3Oc3cc(O)ccc32)c2ccc(C(=O)*)cc21; Cha = N[C@@H](CC1CCCCC1)C(=O)O

Assays:
E. coli D22 strain = experiment: microbe, parasite or virus in culture; assay type: cell-based
From the text: E. coli strain D22 (F-, IpxC101, proA23, lac-28, tsx-81, trp-30, his-51, tufA1, rpsL173(strR), ampCp-1 was purchased at E. coli Genetic Stock Center (Yale University) and used in the determination of MIC and in the peptide penetration assays. E. coli ATCC23724 cells were used to infect D. melanogaster flies. 70S ribosomes were purified from the E. coli MRE600 strain (Accession AY140951) and BL21 (DE3) pLys strain was used for production of the DnaN protein.
(§1) E. coli strains were cultivated on either agar or liquid 1× Mueller Hinton broth unless specified. MIC assays were performed in duplicate in 96-well microtiter plates on the basis of the protocol recommended by the Clinical and Laboratory Standards Institute. Briefly, a mix of 5-6 fresh (less than 36 hours) colonies grown on MH agar plates were inoculated in 3 ml of MH broth and incubated for about 16 h at 37° C. under agitation. 30 μl of this saturated culture were inoculated in 3 ml of fresh medium and allowed to grow until OD600 nm of about 0.6-0.8. Dilution to an OD600 nm of 0.002 was made in MH broth. Within a time laps not exceeding 30 min, 50 μl of this cell suspension was added to 50 μl of MH broth (containing or not the peptide/antibiotic diluted in MH broth) in wells of a 96-well round bottom microwell plate (Greiner; final cell density about 2 to 5×10^5 cfu/ml). Plates were incubated at 37° C. for 18-24 h and final turbidity of each well was measured at 620 nm using a Multiskan FC microplate reader (Thermo Scientific). MIC was defined as the minimal antibiotic concentration that result in no increase of turbidity at that time. Each MIC determination was performed in duplicate and at least in two independent experiments. Plating of 75 μl of the content of the wells of interest on LB Agar plates was used to determine the MBC that is defined by a decrease of at least 99.9% of cell viability as compared to the number of viable cells in the inoculum (about 2 to 5×10^4 cfu).

[1] = tested on: E. coli 70S ribosome (^Ec70S); experiment: ITC, peptide interaction with E. coli 70S ribosome; assay type: binding
Method: E. coli MRE600 cells were grown at 37° C. in LB medium until OD^600=1. Cells were centrifuged at 4° C., and pellets were resuspended in buffer A (20 mM Tris HCl pH 7.5; 200 mM NH4Cl; 20 mM MgCl2; 0.1 mM EDTA; 6 mM β-mercaptoethanol) and lysed using a French press at 1.6 kbar. The crude lysate was centrifuged (18 200 rpm) for 30 mn at 4° C. The supernatant was further centrifuged (47000 rpm) at 4° C. for 4 hours and the pellet resuspended in 12.5 ml of buffer A. This solution was laid on a 30% sucrose cushion and centrifuged (34 000 rpm) for 19 hours at 4° C. The ribosome pellet was resuspended in 12.5 ml buffer B (20 mM Tris HCl pH 7.5; 50 mM NH4Cl; 10 mM MgCl2; 0.1 mM EDTA; 6 mM β-mercaptoethanol) and centrifuged again (18 200 rpm) for 1 hour at 4° C. The supernatant was concentrated on Centrikon 100K (Millipore) and washed extensively with ITC 70S buffer. Ribosome concentration was determined by UV absorption at 260 nm. Samples were snap frozen in liquid nitrogen and kept at −80° C.
(§2) ITC experiments were performed on a iTC200 (Microcal Malvern Panalytical) or PEAQ-ITC instrument (Microcal Malvern Panalytical). The E. coli SC were washed extensively with ITC buffer (R1 buffer: 10 mM Hepes pH 7.4, 0.15 M NaCl, 3 mM EDTA) on Centrikon 10K at 4° C. before ITC experiments. […] Similarly, E. coli 70S ribosome particles were also washed extensively with ITC 70S buffer (50 mM Tris HCl pH7.5, 30 mM KCl, 70 mM NH4Cl, 7 mM MgCl2, 1 mM DTT, 5% glycerol) on Centrikon 100K at 4° C. before ITC experiments. Peptides (100 to 400 μM) were titrated at 30° C. (303.15 K) in sequential injections (usually 2 μl each) into a SC (20 or 30 μM) or 70S (10 to 15 μM) solution. Data were corrected from control experiments in which peptides were injected in ITC buffer solution. Each titration was performed at least twice. Analyses of experimental data were performed with AFFINImeter software (https://www.affinimeter.com; S4S, Santiago de Compostela, Spain).
The lack of interaction with the ribosome of E. coli has been measured by ITC at 30° C.:
The interactions of these peptides with the E. coli SC (beta ring) and the ribosome were measured by ITC at […]: […]

[2] = tested on: E. coli ATCC 25922 (DSM 1103) strain; assay type: cell-based; details: ATCC 25922, 36 h
Method: as §1
The antimicrobial activities of these peptides have been tested against the E. coli ATCC 25922 (DSM 1103) strain in 1× Mueller-Hinton broth as mentioned above.
The antimicrobial activities of these peptides and controls have been tested against the E. coli ATCC 25922 (DSM 1103) strain in 1× Mueller-Hinton broth.

[3] = target: T1, E. coli SC (^EcSC, beta ring, DnaN) (Escherichia coli, UniProt P0A988); experiment: ITC, peptide interaction with E. coli sliding clamp; assay type: binding
T1 construct: inferred from the pET15b vector and the Ni-NTA/imidazole purification; made in house; host or cells: E. coli BL21 (DE3) pLys
Method: The DnaN protein was expressed from plasmids pET15b, containing the dnaN gene from E. coli, transfected in BL21 (DE3) pLys E. coli strain. Cells were grown in LB at 37° C. to OD 0.5, then induced by IPTG (0.1 mM) at 28° C. overnight. DnaN protein was first enriched on a Ni-NTA column, eluted with an imidazole step (300 mM) and further purified on a Source Q column in buffer containing 20 mM Tris HCl pH 7.5, 0.5 mM EDTA and 10% glycerol, using a gradient from 0 to 0.5 M NaCl. After a final ultracentrifugation (45K, 1 h, 20° C.), soluble proteins were concentrated on a Centricon 30K (Millipore) in the same buffer and stored at 4° C. in 2 M ammonium sulfate.
as §2, with “[…] […]” for “Peptides (100 to 400 μM) were titrated at 30° C. (303.15 K) in sequential injections (usually 2 μl each) into a SC (20 or 30 μM) or 70S (10 to 15 μM) solution.”

[4] = ITC, 30° C., E. coli ribosome, FITC-Onc112 series
[5] = ITC 30° C. (303.15 K), Table 2A, ^EcSC, Ni = no specific interaction
[6] = ITC 30° C., Table 2A, ^EcSC, Ni = no specific interaction
[7] = ITC 30° C., Table 2B, ^Ec70S, Ni = no specific interaction
[8] = ITC 30° C., Table 2B, ^Ec70S, Ni = no specific interaction, FITC peptides (*) values not well defined
[9] = E. coli D22, Mueller Hinton broth, range of at least 2 independent experiments

T1 sequence (P0A988 whole entry): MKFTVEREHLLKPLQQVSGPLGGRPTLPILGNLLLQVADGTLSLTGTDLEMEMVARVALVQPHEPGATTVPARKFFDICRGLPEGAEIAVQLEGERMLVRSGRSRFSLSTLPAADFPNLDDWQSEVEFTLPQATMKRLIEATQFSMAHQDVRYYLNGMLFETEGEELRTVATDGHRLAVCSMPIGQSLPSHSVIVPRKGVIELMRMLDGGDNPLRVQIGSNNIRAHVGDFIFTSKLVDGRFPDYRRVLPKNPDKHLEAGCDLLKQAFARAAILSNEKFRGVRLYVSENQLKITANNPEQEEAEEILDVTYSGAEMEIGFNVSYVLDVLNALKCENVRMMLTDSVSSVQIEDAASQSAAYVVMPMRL

SMILES: CC1(C)S[C@@H]2[C@H](NC(=O)[C@H](N)c3ccccc3)C(=O)N2[C@H]1C(=O)O [Ampicillin, reference compound]
MIC (E. coli D22 strain; Escherichia coli, D22STRAIN, E. coli D22, Mueller Hinton broth, range of at least 2 independent experiments, read-out: MIC): 22.9 to 45.8 µM
MIC (E. coli D22 strain; Escherichia coli, D22STRAIN, E. coli D22, Mueller Hinton broth, range of at least 2 independent experiments, read-out: MIC (μg/ml)): 8 to 16 µg/mL
MBC (E. coli D22 strain; Escherichia coli, D22STRAIN, E. coli D22, decrease of at least 99.9% of cell viability, read-out: MBC): 16 µg/mL (≈ 45.8 µM)

MIC [2]: 32 to 64 µM
SMILES: CC[C@H](C)[C@H](NC(=O)[C@@H](CCCNC(=N)N)NC(=O)[C@H](CCCNC(=N)N)NC(=O)[C@@H]1CCCN1C(=O)[C@@H]1CCCN1C(=O)[C@H](CCCNC(=N)N)NC(=O)[C@@H]1CCCN1C(=O)[C@H](CCCNC(=N)N)NC(=O)[C@@H]1CCCN1C(=O)[C@H](CC(C)C)NC(=O)[C@H](Cc1ccc(O)cc1)NC(=O)[C@@H]1CCCN1C(=O)[C@@H]1CCCN1C(=O)[C@H](CCCCN)NC(=O)[C@H](CC(=O)O)NC(=O)[C@@H](NC(=O)c1ccc2c(c1)C(=O)OC21c2ccc(O)cc2Oc2cc(O)ccc21)C(C)C)C(=O)N[C@@H](Cc1ccc(O)cc1)C(=O)N[C@@H](CC(N)=O)C(=O)N[C@H](CCCNC(=N)N)C(N)=O [CA3-124] (5FAM-VDKPPYLPRPRPPR[dR]IYN[dR]-NH2)
Kd [1, 4]: 7.7 µM
ΔG (kcal/mol) [1, 4]: −7.1 (±0.4) kcal/mol
ΔH [1, 4]: -22.6 kcal/mol

SMILES: CC[C@H](C)[C@H](NC(=O)[C@@H]1CCCN1C(=O)[C@H](CCCNC(=N)N)NC(=O)[C@@H]1CCCN1C(=O)[C@@H]1CCCN1C(=O)[C@@H](NC(=O)[C@@H]1CCCN1C(=O)[C@H](CCCNC(=N)N)NC(=O)[C@@H]1CCCN1C(=O)[C@H](CC(C)C)NC(=O)[C@H](Cc1ccc(O)cc1)NC(=O)[C@H](CO)NC(=O)CNC(=O)[C@H](CCCCN)NC(=O)[C@H](CC(=O)O)NC(=O)[C@@H](N)C(C)C)[C@@H](C)O)C(=O)N[C@@H](Cc1ccc(O)cc1)C(=O)N[C@@H](CC(N)=O)C(=O)N[C@@H](CCCNC(=N)N)C(=O)N[C@@H](CC(N)=O)C(=O)NCC(=O)N1CCC[C@H]1C(=O)N[C@@H](CCCNC(=N)N)C(=O)N[C@@H](CCC(N)=O)C(=O)N[C@@H](CC1CCCCC1)C(=O)N[C@@H](CC(=O)O)C(=O)N[C@@H](CC(C)C)C(=O)N[C@@H](Cc1ccccc1)C(=O)O [Peptide P116] (H-VDKGSYLPRPTPPRPIYNRNGPRQ[Cha]DLF-OH)
interaction with ^EcSC, in words ([3]; ITC 30° C.): as efficiently as P7 alone
ΔH [3, 5]: -13.9 kcal/mol
ΔG [3, 6]: -9.61 kcal/mol
−TΔS [3, 6]: 4.3 kcal/mol
interaction with ^Ec70S, in words ([1]; ITC 30° C.): efficiently interact
Kd [1, 7]: 0.037 µM
ΔG [1, 8]: -10.3 kcal/mol
ΔH [1, 8]: -22.3 kcal/mol
−TΔS [1, 8]: 12 kcal/mol
affinity for the ribosome relative to affinity for SC ([1]; from Table 2, ^Ec70S versus ^EcSC): three times higher affinity
MBC (E. coli D22 strain; D22 strain): 8 µg/mL (≈ 2.42 µM)
MIC (μM) (E. coli D22 strain; D22 strain): 1.2 to 2.4 µM
MIC (μg/ml) (E. coli D22 strain; D22 strain): 4 to 8 µg/mL
antibacterial activity, in words (E. coli D22 strain; E. coli D22, microdilution broth assay): no increase in the activity

SMILES: CC[C@H](C)[C@H](NC(=O)[C@@H]1CCCN1C(=O)[C@H](CCCNC(=N)N)NC(=O)[C@@H]1CCCN1C(=O)[C@@H]1CCCN1C(=O)[C@@H](NC(=O)[C@@H]1CCCN1C(=O)[C@H](CCCNC(=N)N)NC(=O)[C@@H]1CCCN1C(=O)[C@H](CC(C)C)NC(=O)[C@H](Cc1ccc(O)cc1)NC(=O)[C@H](CO)NC(=O)CNC(=O)[C@H](CCCCN)NC(=O)[C@H](CC(=O)O)NC(=O)[C@@H](N)C(C)C)[C@@H](C)O)C(=O)N[C@@H](Cc1ccc(O)cc1)C(=O)N[C@@H](CC(N)=O)C(=O)N[C@@H](CCCNC(=N)N)C(=O)N[C@@H](CC(N)=O)C(=O)NCC(=O)N1CCC[C@H]1C(=O)N[C@@H](CCCNC(=N)N)C(=O)N[C@@H](CC1CCCCC1)C(=O)N[C@@H](Cc1ccccc1)C(=O)N[C@@H](CCC(N)=O)C(=O)N[C@@H](CC(C)C)C(=O)N[C@@H](CC(=O)O)C(=O)O [Peptide P188]
interaction with ^EcSC, in words ([3]; ITC 30° C.): fail to interact
ΔH (kcal/mole) [3, 5]: Ni
Kd (nM) [3, 6]: Ni
ΔG (kcal/mole) [3, 6]: Ni
−TΔS (kcal/mole) [3, 6]: Ni
Kd [1, 7]: 0.0758 µM
ΔG [1, 8]: -9.89 kcal/mol
ΔH [1, 8]: -15.4 kcal/mol
−TΔS [1, 8]: 5.5 kcal/mol
MIC (μM) (E. coli D22 strain; D22 strain): 1.2 to 2.4 µM
MIC (μg/ml) (E. coli D22 strain; D22 strain): 4 to 8 µg/mL

SMILES: CN(C)[C@@H]1C(=O)C(C(N)=O)=C(O)[C@@]2(O)C(=O)C3=C(O)c4c(O)cccc4[C@@](C)(O)[C@H]3C[C@@H]12 [Tetracyclin, reference compound]
MIC (μM) (E. coli D22 strain; [9]): 0.56 to 1.12 µM
MIC (μg/ml) (E. coli D22 strain; [9]): 0.25 to 0.5 µg/mL
MBC (E. coli D22 strain; E. coli D22, decrease of at least 99.9% of cell viability): 0.5 µg/mL (≈ 1.13 µM)
